Measured values: US20070275911A1, “Targeted Drug-Formaldehyde Conjugates and Methods of Making and Using the Same” (priority 2003, published 2007)
Several values for one entry are separate records, joined by “and”; a condition that tells them apart may be missing. Equal values may be shown once.

Assays:
[1] = tested on: MDA-MB-231 cells; test: Uptake and release by flow cytometry; type: cell-based, human
From the text: Additionally, uptake and release data were obtained for DOX, DOXSF, and DOX-TEG-TAM in estrogen receptor-negative MDA-MB-435 and MDA-MB-231 cells. In both cell lines DOX-TEG-TAM was also taken up to a much greater extent than DOX and DOXSF. In MDA-MB-435 cells DOX-TEG-TAM was taken up 3-fold and 5-fold more than DOXSF and DOX, respectively. In MDA-MB-23 1 cells DOX-TEG-TAM was taken up 2-fold and 6-fold more than DOXSF and DOX, respectively.
Uptake and release of DOX, DOXSF, and DOX-TEG-TAM: The uptake and release of DOX-TEG-TAM in breast cancer cells relative to DOX and untargeted DOXSF was performed as described with modifications. Breast cancer cells in log phase growth were dissociated with trypsin-EDTA, counted, resuspended in media at 1.5×10^5 cells/mL, and plated into six well plates (450,000 cells/well) and allowed to adhere overnight. The cells were treated with 0.5 μM DOX, DOXSF, or DOX-TEG-TAM for various amounts of time (20 min, 40 min, and 60 min). Drug treatment was accomplished by addition of 30 μL of 100× drug solution (50 μM) to 3 mL of media which was mixed and immediately added to the cells. For each time point, the media was removed, cells were trypsinized, and trypsinization was quenched with 3 mL phenol red-free RPMI 1640 media (no serum) at 4° C. Cells were pelleted by centrifugation at 300 g for 5 min at 10° C. The supernatant was decanted and the cells were re-suspended in 1 mL serum- and phenol red-free RPMI 1640 media and placed on ice.
For drug retention samples, the cells were treated for 1 h with 0.5 μM DOX, DOXSF, or DOX-TEG-TAM. Following drug treatment, the media was removed and replaced with 3 mL fresh, 37° C., full (containing serum and phenol red indicator) cell media and the cells were incubated for various times (0.5 h, 1 h, 3 h, and 6 h). Following the allotted release times, the cells were prepared as described above. Drug treatment was performed such that all cell samples would be prepared within 2 h.
The extent of drug uptake and retention was measured by flow cytometry. Cells were analyzed with excitation at 488 nm (15 mW Ar ion laser), with emission monitored between 570 and 600 nm. Instrument settings were optimized for each cell line and held constant for all experiments; 10,000 cells were analyzed for anthracycline fluorescence. The data are presented as the mean fluorescence for each condition with the background, drug-free cell fluorescence subtracted.

[2] = Hydrolysis and stability of DOX-TEG-TAM; type: physicochemical
Procedure: Results: Hydrolysis and stability. A standard solution of DOX-TEG-TAM (11c) in dimethylsulfoxide (DMSO) containing 1% v/v acetic acid (AcOH) was diluted 1:100 in two different buffers: lysis buffer (pH 7.4, 10 mM Tris, 1.5 mM EDTA, 10 mM Na2MoO4) used for binding experiments or TE buffer (pH 7.6, 10 MM Tris, 1 mM EDTA). Samples incubated at 37° C. and 4° C. were monitored by HPLC to detect the loss of intact targeted drug and the formation of doxorubicin. The hydrolysis data was fit using first-order reaction kinetics to provide first-order rate constants; the hydrolysis half-life was then calculated using t1/2=ln2/k.
The DOX-TEG-TAM was diluted 1:100 in either pH 7.6 TE buffer (10 mM tris, 1 mM EDTA buffer) or pH 7.4 lysis buffer (10% v/v glycerol, 10 mM Tris, 1.5 mM EDTA, 10 mM Na2MoO4). A sample of each buffer was kept at 37° C. and 4° C. and monitored by HPLC using Method #2 (described above) to track the loss of DOX-TEG-TAM and the subsequent formation of doxorubicin. The area-under-the-curve (AUC) was used to calculate the percentage of intact material versus time. The hydrolysis data were fit to first-order kinetics using Regression (Blackwell Scientific Publishing, London) software. The reaction rate constants were 0.012±0.0007 min^−1 (pH 7.6) and 0.0092±0.0003 min^−1 (pH 7.4) at 37° C.; 0.0058±0.0005 h^−1 (pH 7.6) and 0.0038±0.0003 h^−1 ([…]) at 4° C. The half-life for hydrolysis was then calculated from the rate constants using t1/2=ln2/k.

[3] = cell line not stated; cited from earlier work
[4] = tested on: PC3/AR and PC3/neo cells; settings: 3 h treatment / over time
Procedure: The fluorescence of doxorubicin can be monitored in order to determine the rate of uptake and intracellular distribution of the anthraquinone fluorophore.
This cell suspension was dispensed in 2 mL aliquots into 6-well tissue culture plates. Plates were then incubated for 36 h at 37° C. in a humidified atmosphere of 5% CO2 and 95% air. The medium was replaced with 1 mL of phenol red-free RPMI 1640 growth medium supplemented with 10% dextran-coated charcoal stripped FBS prior to addition of the test compound. The appropriate compound was dissolved in DMSO and the concentration was adjusted to 50-200 μM by measuring the solution absorbance at 480 nm. Addition of 10 μL of the appropriate doxorubicin or prodrug solution was followed by incubation at 37° C. as indicated. The drug solution in individual wells was removed at the appropriate time and the cells were washed with 1 mL of the phenol red-free growth medium. The washed cells were then supplemented with 1 mL of phenol-red free growth medium for imaging.

SMILES: CC/C(=C(/c1ccc(O)cc1)c1ccc(OCCN(C)CCOCCOCCO/N=C/c2ccc(O)c(C(=O)NCN[C@H]3C[C@H](O[C@H]4C[C@](O)(C(=O)CO)Cc5c(O)c6c(c(O)c54)C(=O)c4c(OC)cccc4C6=O)O[C@@H](C)[C@H]3O)c2)cc1)c1ccccc1 [11c, E/Z-N-(2-Hydroxy-5-{[2-(2-{2-[(2-{4-[1-(4-hydroxy-phenyl)-2-phenyl-but-1-enyl]-phenoxy}-ethyl)-methyl-amino]-ethoxy}-ethoxy)-ethoxyimino]-methyl}-benzamide)-doxorubicin]
- fold uptake more than DOX ([1]; MDA-MB-231): 6 fold
- fold uptake more than DOXSF ([1]; MDA-MB-231): 2 fold
- uptake relative to MDA-MB-435 cells ([1]; MDA-MB-231, 1 h, 500 nM): about 25%
- fluorophore retention vs DOXSF or DOX ([1]; MDA-MB-231, after 1 h treatment with 500 nM): retained to a greater extent
- reaction rate constant ([2]; pH 7.4, 37° C.): 0.0092 ± 0.0003 min⁻¹
- reaction rate constant ([2]; pH 7.5, 4° C.): 6.33e-05 ± 5e-06 min⁻¹
- reaction rate constant ([2]; pH 7.6, 4° C.): 9.67e-05 ± 8.3e-06 min⁻¹
- reaction rate constant ([2]; pH 7.6, 37° C.): 0.012 ± 0.0007 min⁻¹

SMILES: COc1cccc2c1C(=O)c1c(O)c3c(c(O)c1C2=O)C[C@@](O)(C(=O)CO)C[C@@H]3O[C@H]1C[C@H](NCNC(=O)c2ccccc2O)[C@H](O)[C@H](C)O1 [doxsaliform, N-(2-Hydroxybenzamido-methyl)-doxorubicin]
- IC50 [3]: 0.06 µM and 0.05 µM
- intracellular distribution of fluorescence over time [4]: exclusive nuclear accumulation of fluorescence
